Experimental findings from US10544099B2, “Inhibitors of indoleamine 2,3-dioxygenase and methods of their use” (BRISTOL-MYERS SQUIBB COMPANY, priority 2016, dated 2020) are described below.

Bounds are passed on as bounds.

For the assay, the target named is T1, human IDO1 (Homo sapiens, UniProt P14902).
T1 construct: expressed in transfected cells
T1 sequence (P14902 whole entry): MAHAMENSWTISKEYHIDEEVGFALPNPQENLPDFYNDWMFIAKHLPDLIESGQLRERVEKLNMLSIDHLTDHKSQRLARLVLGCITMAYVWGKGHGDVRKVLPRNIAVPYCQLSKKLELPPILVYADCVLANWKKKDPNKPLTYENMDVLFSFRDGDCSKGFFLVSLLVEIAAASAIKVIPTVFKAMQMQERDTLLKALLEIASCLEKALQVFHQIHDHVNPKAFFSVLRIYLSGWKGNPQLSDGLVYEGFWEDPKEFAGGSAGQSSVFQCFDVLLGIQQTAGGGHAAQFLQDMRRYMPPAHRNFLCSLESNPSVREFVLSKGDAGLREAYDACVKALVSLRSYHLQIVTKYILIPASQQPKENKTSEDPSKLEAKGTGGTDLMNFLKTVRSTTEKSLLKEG
In words: HEK Human IDO-1 cell-based IDO inhibition assay. The settings on record: human IDO1/HEK293 cells, 20 hours incubation, kynurenine absorbance at 490 nm; read-out: HEK Human IDO-1 Bio Activity. As to the method:
HEK293 cells were transfected with a pCDNA-based mammalian expression vector harboring human IDO1 cDNA (NM 002164.2) by electroporation. They were cultured in medium (DMEM with 10% FBS) containing 1 mg/ml G418 for two weeks. Clones of HEK293 cells that stably expressed human IDO1 protein were selected and expanded for IDO inhibition assay.
The human IDO1/HEK293 cells were seeded at 10,000 cells per 50 μL per well with RPMI/phenol red free media contains 10% FBS in a 384-well black wall clear bottom tissue culture plate (Matrix Technologies LLC) 100 nL of certain concentration of compound was then added to each well using ECHO liquid handling systems. The cells were incubated for 20 hours in 37° C. incubator with 5% CO2.
The compound treatments were stopped by adding trichloroacetic acid (Sigma-Aldrich) to a final concentration at 0.2%. The cell plate was further incubated at 50° C. for 30 minute. The equal volume supernatant (20 μL) and 0.2% (w/v) Ehrlich reagent (4-dimethylaminobenzaldehyde, Sigma-Aldrich) in glacial acetic acid were mixed in a new clear bottom 384-well plate. This plate was then incubated at room temperature for 30 minute. The absorbance at 490 nm was measured on Envision plate reader.
Compound IC50 values were calculated using the counts of 500 nM of a reference standard treatment as one hundred percent inhibition, and counts of no compound but DMSO treatment as zero percent inhibition.
For `CC(NC(=O)Nc1ccc(Cl)cc1)C1CCN(c2ccnc3ccc(F)cc23)CC1` (racemic) [Example 1, (±)-1-(4-Chlorophenyl)-3-(1-(1-(6-fluoroquinolin-4-yl)piperidin-4-yl)ethyl)urea], the IC50 was under 2000 nM. With `O=C(Nc1ccc(Cl)cc1)NC1CC12CCC(c1ccnc3ccc(F)cc13)CC2` (racemic) [Example 2, (±)-1-(4-chlorophenyl)-3-(6-(6-fluoroquinolin-4-yl)spiro [2.5]octan-1-yl)urea], the IC50 is under 2000 nM. Regarding `CC[C@@H](NC(=O)Nc1ccc(Cl)cc1)[C@H]1CC[C@H](Oc2ccnc3ccccc23)CC1` (racemic) [Example 3, (±)-1-(4-chlorophenyl)-3-((R)-1-((trans)-4-(quinolin-4-yloxy)cyclohexyl)propyl)urea], the IC50 was under 50 nM. With `Cc1ccc(NC(=O)N[C@H](C)[C@H]2CC[C@@H](c3ccnc4ccc(F)cc43)CC2)cc1` [Example 4, 1-((R)-1-((1s,4s)-4-(6-Fluoroquinolin-4-yl)cyclohexyl)ethyl)-3-p-tolylurea], the IC50 is under 50 nM. As for `C[C@@H](NC(=O)Nc1ccc(Cl)cc1)[C@H]1CC[C@@H](c2ccnc3ccc(F)cc32)CC1` [Example 5, 1-(4-chlorophenyl)-3-((R)-1-((1s,4S)-4-(6-fluoroquinolin-4-yl)cyclohexyl)ethyl)urea], the figure is under 50 nM; as for `CCOc1ccc(NC(=O)N[C@H](C)[C@H]2CC[C@@H](c3ccnc4ccc(F)cc43)CC2)cc1` [Example 6, 1-(4-ethoxyphenyl)-3-((R)-1-((1s,4S)-4-(6-fluoroquinolin-4-yl)cyclohexyl)ethyl)urea], under 50 nM; as for `Cc1ccc(NC(=O)N[C@H](C)[C@H]2CC[C@@H](c3ccnc4ccc(F)cc43)CC2)cc1Cl` [Example 7, 1-(3-chloro-4-methylphenyl)-3-((R)-1-((1s,4S)-4-(6-fluoroquinolin-4-yl)cyclohexyl)ethyl)urea], under 50 nM. With `C[C@@H](NC(=O)Nc1ccc(F)cc1)[C@H]1CC[C@@H](c2ccnc3ccc(F)cc32)CC1` [Example 8, 1-(4-fluorophenyl)-3-((R)-1-((1s,4S)-4-(6-fluoroquinolin-4-yl)cyclohexyl)ethyl)urea], the IC50 is under 50 nM.

Turning to `Cc1ccc(OC(=O)N[C@H](C)[C@H]2CC[C@@H](c3ccnc4ccc(F)cc43)CC2)cc1` [Example 9], the IC50 is under 250 nM. With `C[C@@H](NC(=O)Oc1ccc(F)cc1)[C@H]1CC[C@@H](c2ccnc3ccc(F)cc32)CC1` [Example 10, 4-fluorophenyl (R)-1-((1s,4S)-4-(6-fluoroquinolin-4-yl)cyclohexyl)ethylcarbamate], the IC50 is under 250 nM.

`COc1ccc(OC(=O)N[C@H](C)[C@H]2CC[C@@H](c3ccnc4ccc(F)cc43)CC2)cc1` [Example 11, 4-methoxyphenyl (R)-1-((1s,4S)-4-(6-fluoroquinolin-4-yl)cyclohexyl)ethylcarbamate]: the IC50 was under 50 nM.
